In patent publication US10640515B2, “Hepatitis C virus inhibitor and uses thereof” (priority 2016, dated 2020):

Key:
[1] = CC50 by CellTiter-GLO kit, HCV-1b replicon cell; type: cell-based; settings: human
Excerpt: (§1) A Huh7-Con1b cell line contained an HCV 1b-genotype replicon Con1b and a reporter gene of firefly luciferase. An Huh7-H77 and an Huh7-JFH1 cell line both contained a reporter gene of renilla luciferase and respectively contained an HCV 1a-genetype replicon H77 and an HCV 2a-genetype replicon JFH1. The replication level of HCV in host cells can be characterized by the expression of the firefly luciferase gene or the renilla luciferase gene. The effect of the compounds described herein on the HCV replication can be evaluated through a chemiluminescence detection of the expression of the above two luciferase genes. Meanwhile, the CC50 value of each Huh7 cell line was measured using a CellTiter GLO kit to evaluate the toxicity of the compounds.
(§2) The compounds described herein were subjected to three-fold serial dilutions using a Bravo liquid treatment system to obtain a total of 11 concentration points prior to cell plating. The prepared compounds were added to cell culture plates using an Echo 550 system. The Huh7-H77 and the Huh7-JFH1 cells were inoculated into the 96-well plate added with the compounds at an amount of 10000 cells per well. The Huh7-Con1b and the Huh7 cells were inoculated into the 384-well plate added with the compounds at an amount of 5000 cells per well. The cell culture plates were incubated in a CO2 incubator (5%) at 37° C. for 72 hours.
(§3) The CellTiter-GLO reagent was heated to room temperature. The 384-well plate plated with the Huh 7 cells was transferred from the incubator and cooled at room temperature for 20 minutes. Each well was added with 50 μL of the CellTiter-GLO reagent (Promega Inc.), and then the 384-well plate was shaken for 2 minutes. The 384-well plate was subsequently incubated in a dark environment at room temperature for 10 minutes. After the incubation, the 384-well plate was read using an Envision Plate Reader at a signal accumulation time of per well of 0.1 s.

[2] = CC50 by CellTiter-GLO kit, HCV-1a replicon cell; type: cell-based; settings: human
Excerpt: as §1, §2, §3

[3] = CC50 by CellTiter-GLO kit, HCV-2a replicon cell; type: cell-based; settings: human
Excerpt: as §1, §2, §3

[4] = tested on: HCV 2a-genetype replicon JFH1; assay: HCV replicon luciferase assay, HCV-2a replicon (Huh7-JFH1, renilla luciferase); type: cell-based, hepatitis C virus (HCV); settings: Huh7-JFH1 cells
Excerpt: (§4) The HCV replicon was first reported in Science. 1999 Jul. 2; 285 (5424), 110-3. The HCV replicon system has been one of the most important tools to investigate the RNA replication, pathogenicity and virus persistence of HCV. For example, the replicon has been successfully used to verify the 5′-NCR minimum region essential for HCV RNA replication, in addition, the HCV replicon system has been successfully used as an evaluation model for antiviral drugs.
(§5) In brief, three stably-transfected cell lines containing different HCV genotypes of replicons were used to test activity of the compounds in inhibiting the HCV replication.
as §1, §2
(§6) The 96-well plate was taken out of the incubator and cooled at room temperature for 30 minutes. After removing the medium, each well was added with 30 μL of a diluted Promega lysate (diluted using pure water in a volume ratio of 1:4). The 96-well plate was placed in a shaker at a shaking rate of 1000 rpm at room temperature for 15 minutes. Each well was added with 100 μL of a diluted Premega luciferase reagent (Promega Inc.) (diluted using a substrate buffer in a volume ratio of 1:99) and then, the 96-well plate was immediately read using an Envision Plate Reader at a signal accumulation time of per well of 0.1 s.

[5] = tested on: HCV 1a-genetype replicon H77; assay: HCV replicon luciferase assay, HCV-1a replicon (Huh7-H77, renilla luciferase); type: cell-based; settings: Hepatitis C virus, Huh7-H77 cells, 72 hours
Excerpt: as §4, §5, §1, §2, §6

[6] = tested on: HCV 1b-genotype replicon Con1b; assay: HCV replicon luciferase assay, HCV-1b replicon (Huh7-Con1b, firefly luciferase); type: cell-based; settings: Hepatitis C virus, Huh7-Con1b cells, 72 hours
Excerpt: as §5, §1, §2
The 384-well plate was taken out of the incubator and cooled at room temperature for 30 minutes. After removing the medium, each well was added with 50 μL of DPBS (Dulbecco's Phosphate Buffered Saline) and then added with 50 μL of a Britelit plus reagent (PerkinElmer Inc.). Then the 384-well plate was placed in a shaker at a shaking rate of 1000 rpm at room temperature for 1 minute. Finally, the 384-well plate was read using an Envision Plate Reader at a signal accumulation time of per well of 0.1 s.

[7] = in the rats, reported in a literature; cited from earlier work

## COC(=O)N[C@H](C(=O)N1CCC[C@H]1C(=O)Nc1ccc2c(c1)O[C@H](c1ccccc1)n1c-2cc2cc(NC(=O)[C@@H]3CCCN3C(=O)[C@@H](NC(=O)OC)C(C)C)ccc21)C(C)C [PA6001-A]
[1]
  CC50 at 72 h: > 100 nM
[2]
  CC50 at 72 h: > 100 nM
[3]
  CC50 at 72 h: > 100 nM
[4]; Hepatitis C virus, 72 h
  EC50: 0.0546 nM
[5]
  EC50: 2.94 nM
[6]
  EC50: 0.00814 nM

## COC(=O)N[C@H](C(=O)N1CCC[C@H]1C(=O)Nc1ccc2c(c1)O[C@@H](c1c(F)c(F)cc(F)c1F)n1c-2cc2cc(NC(=O)[C@@H]3CCCN3C(=O)[C@@H](NC(=O)OC)C(C)C)ccc21)C(C)C [PA6031]
[1]
  CC50 at 72 h: > 100 nM
[2]
  CC50 at 72 h: > 100 nM
[3]
  CC50 at 72 h: > 100 nM
[4]; Hepatitis C virus, 72 h
  EC50: 0.04 to 0.05 nM
[4]; 72 hours
  EC50: 0.0401 nM
[5]
  EC50: 0.0369 nM
[6]
  EC50: 0.0023 nM

## COC(=O)N[C@H](C(=O)N1CCC[C@H]1C(=O)Nc1ccc2c(c1)OC(c1ccccc1)n1c-2cc2cc(NC(=O)[C@@H]3CCCN3C(=O)[C@@H](NC(=O)OC)C(C)C)ccc21)C(C)C (some centres unmarked) [PA6001]
[1]
  CC50 at 72 h: > 100 nM
[2]
  CC50 at 72 h: > 100 nM
[3]
  CC50 at 72 h: > 100 nM
[4]; Hepatitis C virus, 72 h
  EC50: 0.059 nM
[5]
  EC50: 1.57 nM
[6]
  EC50: 0.02 nM

## COC(=O)N[C@H](C(=O)N1C[C@H](F)C[C@H]1C(=O)Nc1ccc2c(c1)OC(c1cc(F)cc(F)c1)n1c-2cc2cc(NC(=O)[C@@H]3C[C@H](F)CN3C(=O)[C@@H](NC(=O)OC)C(C)C)ccc21)C(C)C (some centres unmarked) [PA6018]
[1]
  CC50 at 72 h: > 100 nM
[2]
  CC50 at 72 h: > 100 nM
[3]
  CC50 at 72 h: > 100 nM
[4]; Hepatitis C virus, 72 h
  EC50: 0.102 nM
[5]
  EC50: 0.0351 nM
[6]
  EC50: 0.00295 nM

## COC(=O)N[C@H](C(=O)N1CCC[C@H]1C(=O)Nc1ccc2c(c1)O[C@@H](c1ccccc1)n1c-2cc2cc(NC(=O)[C@@H]3CCCN3C(=O)[C@@H](NC(=O)OC)C(C)C)ccc21)C(C)C [PA6001-B]
[1]
  CC50 at 72 h: > 100 nM
[2]
  CC50 at 72 h: > 100 nM
[3]
  CC50 at 72 h: > 100 nM
[4]; Hepatitis C virus, 72 h
  EC50: 0.0626 nM
[5]
  EC50: 0.0593 nM
[6]
  EC50: 0.0068 nM

## COC(=O)N[C@H](C(=O)N1CCC[C@H]1C(=O)Nc1ccc2c(c1)O[C@@H](c1cc(F)c(F)c(F)c1)n1c-2cc2cc(NC(=O)[C@@H]3CCCN3C(=O)[C@@H](NC(=O)OC)C(C)C)ccc21)C(C)C [PA6032]
[1]
  CC50 at 72 h: > 100 nM
[2]
  CC50 at 72 h: > 100 nM
[3]
  CC50 at 72 h: > 100 nM
[4]; Hepatitis C virus, 72 h
  EC50: 0.147 nM
[5]
  EC50: 0.0168 nM
[6]
  EC50: 0.00304 nM

## COC(=O)N[C@H](C(=O)N1CCC[C@H]1C(=O)Nc1ccc2c(c1)O[C@@H](c1c(F)c(F)c(F)c(F)c1F)n1c-2cc2cc(NC(=O)[C@@H]3CCCN3C(=O)[C@@H](NC(=O)OC)C(C)C)ccc21)C(C)C [PA6030]
[1]
  CC50 at 72 h: > 100 nM
[2]
  CC50 at 72 h: > 100 nM
[3]
  CC50 at 72 h: > 100 nM
[4]; Hepatitis C virus, 72 h
  EC50: 0.207 nM
[5]
  EC50: 0.0763 nM
[6]
  EC50: 0.00315 nM

## COC(=O)N[C@H](C(=O)N1CCC[C@H]1C(=O)Nc1ccc2c(c1)OC(c1cc(F)cc(F)c1)n1c-2cc2cc(NC(=O)[C@@H]3CCCN3C(=O)[C@@H](NC(=O)OC)C(C)C)ccc21)C(C)C (some centres unmarked) [PA6016]
[1]
  CC50 at 72 h: > 100 nM
[2]
  CC50 at 72 h: > 100 nM
[3]
  CC50 at 72 h: > 100 nM
[4]; Hepatitis C virus, 72 h
  EC50: 0.04 to 0.05 nM
[4]; 72 hours
  EC50: 0.0499 nM
[5]
  EC50: 0.0433 nM
[6]
  EC50: 0.00365 nM

## COC(=O)N[C@H](C(=O)N1CC(F)(F)C[C@H]1C(=O)Nc1ccc2c(c1)OC(c1ccccc1)n1c-2cc2cc(NC(=O)[C@@H]3CC(F)(F)CN3C(=O)[C@@H](NC(=O)OC)C(C)C)ccc21)C(C)C (some centres unmarked) [PA6011]
[1]
  CC50 at 72 h: > 100 nM
[2]
  CC50 at 72 h: > 100 nM
[3]
  CC50 at 72 h: > 100 nM
[4]; Hepatitis C virus, 72 h
  EC50: 0.312 nM
[5]
  EC50: 0.0476 nM
[6]
  EC50: 0.00118 nM

## COC(=O)N[C@H](C(=O)N1CC(F)(F)C[C@H]1C(=O)Nc1ccc2c(c1)OC(c1cc(F)cc(F)c1)n1c-2cc2cc(NC(=O)[C@@H]3CC(F)(F)CN3C(=O)[C@@H](NC(=O)OC)C(C)C)ccc21)C(C)C (some centres unmarked) [PA6019]
[1]
  CC50 at 72 h: > 100 nM
[2]
  CC50 at 72 h: > 100 nM
[3]
  CC50 at 72 h: > 100 nM
[4]; Hepatitis C virus, 72 h
  EC50: 0.234 nM
[5]
  EC50: 0.0534 nM

## COC(=O)N[C@H](C(=O)N1C[C@H](F)C[C@H]1C(=O)Nc1ccc2c(c1)OC(c1ccccc1)n1c-2cc2cc(NC(=O)[C@@H]3C[C@H](F)CN3C(=O)[C@@H](NC(=O)OC)C(C)C)ccc21)C(C)C (some centres unmarked) [PA6010]
[1]
  CC50 at 72 h: > 100 nM
[2]
  CC50 at 72 h: > 100 nM
[3]
  CC50 at 72 h: > 100 nM
[4]; Hepatitis C virus, 72 h
  EC50: 0.2 nM
[5]
  EC50: 0.107 nM
[6]
  EC50: 0.00449 nM

## COC(=O)N[C@H](C(=O)N1CCC[C@H]1C(=O)Nc1ccc([C@@H]2CC[C@@H](c3ccc(NC(=O)[C@@H]4CCCN4C(=O)[C@@H](NC(=O)OC)C(C)C)cc3)N2c2ccc(C(C)(C)C)cc2)cc1)C(C)C [ABT-267]
[7]
  bioavailability: 100%

## COC(=O)N[C@H](C(=O)N1CC2(CC2)C[C@H]1C(=O)Nc1ccc2c(c1)OC(c1ccccc1)n1c-2cc2cc(NC(=O)[C@@H]3CC4(CC4)CN3C(=O)[C@@H](NC(=O)OC)C(C)C)ccc21)C(C)C (some centres unmarked) [PA6002]
[1]
  CC50 at 72 h: > 100 nM
[2]
  CC50 at 72 h: > 100 nM
[3]
  CC50 at 72 h: > 100 nM
[4]; Hepatitis C virus, 72 h
  EC50: 0.148 nM
[5]
  EC50: 0.03 nM
[6]
  EC50: 0.005 nM

## COC(=O)N[C@H](C(=O)N1CCC[C@H]1C(=O)Nc1ccc2c(c1)O[C@@H](c1cc(F)cc(F)c1)n1c-2cc2cc(NC(=O)[C@@H]3CCCN3C(=O)[C@@H](NC(=O)OC)C(C)C)ccc21)C(C)C [PA6016-B]
[1]
  CC50 at 72 h: > 100 nM
[2]
  CC50 at 72 h: > 100 nM
[3]
  CC50 at 72 h: > 100 nM
[4]; Hepatitis C virus, 72 h
  EC50: 0.0615 nM
[5]
  EC50: 0.018 nM
[6]
  EC50: 0.00434 nM

## COC(=O)N[C@H](C(=O)N1CC2(CC2)C[C@H]1C(=O)Nc1ccc2c(c1)OC(c1cc(F)cc(F)c1)n1c-2cc2cc(NC(=O)[C@@H]3CC4(CC4)CN3C(=O)[C@@H](NC(=O)OC)C(C)C)ccc21)C(C)C (some centres unmarked) [PA6017]
[1]
  CC50 at 72 h: > 100 nM
[2]
  CC50 at 72 h: > 100 nM
[3]
  CC50 at 72 h: > 100 nM
[4]; Hepatitis C virus, 72 h
  EC50: 0.743 nM
[5]
  EC50: 0.0268 nM
[6]
  EC50: 0.00236 nM
